From the supplement of paper PMC10307832

Assays:
Assay in all cases: relative viability (nuclei count vs DMSO), 5 days (fraction); higher = more cells survive
IU1-47 = compound: CC1=CC(=C(N1C2=CC=C(C=C2)Cl)C)C(=O)CN3CCCCC3 [IU1-47]
In short: (§1)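 In 1536-well plates, lung cancer cell lines rested overnight at 37 °C before five library-drug doses (not always all listed), √10 apart, were pinned onto vehicle-anchored plates. Nuclei were counted with MetaXpress from 4× Hoechst images taken after 5 days without medium change. Viability compares treated-well with vehicle-well nuclei as a median over plates, and plates needed control CV below 25% plus at least one doubling to pass.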

FG-4592 = compound: Cc1nc(C(=O)NCC(=O)O)c(O)c2ccc(Oc3ccccc3)cc12 [FG-4592]
In short: as §1

IU1-47 + Navitoclax = compound: CC1=CC(=C(N1C2=CC=C(C=C2)Cl)C)C(=O)CN3CCCCC3 [IU1-47] + CC1(C)CCC(c2ccc(Cl)cc2)=C(CN2CCN(c3ccc(C(=O)NS(=O)(=O)c4ccc(N[C@H](CCN5CCOCC5)CSc5ccccc5)c(S(=O)(=O)C(F)(F)F)c4)cc3)CC2)C1 [Navitoclax] (partner 0.5 µM)
In short: (§2)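 Values are medians from duplicate plates. Each reflects relative viability, defined as the nuclei count of treated wells over that of vehicle wells. Lung cancer cell lines in 1536-well plates were pin-tool dosed one day after seeding with one drug alone or with a fixed anchor-drug dose plus five library-drug doses (not always all listed) in √10 steps, then fixed, stained and imaged at 4× after 5 days.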

FG-4592 + Phenformin = compound: Cc1nc(C(=O)NCC(=O)O)c(O)c2ccc(Oc3ccccc3)cc12 [FG-4592] + N=C(N)NC(=N)NCCc1ccccc1 [Phenformin] (partner 250 µM)
In short: as §2

Cell Line | relative viability (IU1-47; 0.08 µM) | relative viability (IU1-47; 0.253 µM) | relative viability (IU1-47; 0.8 µM) | relative viability (IU1-47; 2.53 µM) | relative viability (IU1-47; 8 µM) | relative viability (FG-4592; 0.08 µM) | relative viability (FG-4592; 0.253 µM) | relative viability (FG-4592; 0.8 µM) | relative viability (FG-4592; 2.53 µM) | relative viability (FG-4592; 8 µM) | relative viability (IU1-47 + Navitoclax; first compound 0.08 µM) | relative viability (IU1-47 + Navitoclax; first compound 0.253 µM) | relative viability (IU1-47 + Navitoclax; first compound 0.8 µM) | relative viability (IU1-47 + Navitoclax; first compound 2.53 µM) | relative viability (IU1-47 + Navitoclax; first compound 8 µM) | relative viability (FG-4592 + Phenformin; first compound 0.08 µM) | relative viability (FG-4592 + Phenformin; first compound 0.253 µM) | relative viability (FG-4592 + Phenformin; first compound 0.8 µM) | relative viability (FG-4592 + Phenformin; first compound 2.53 µM) | relative viability (FG-4592 + Phenformin; first compound 8 µM)
BEN | 1.02 | 1.01 | 1.12 | 0.781 | 0.971 | 0.787 | 0.734 | 0.822 | 1.03 | 0.733 | 0.073 | 0.0735 | 0.0687 | 0.0707 | 0.0719 | 0.234 | 0.231 | 0.268 | 0.288 | 0.306
EMC-BAC-2 | 1.1 | 1.09 | 0.974 | 0.977 | 0.974 | 0.947 | 0.929 | 0.674 | 0.938 | 0.779 | 1.25 | 1.26 | 1.21 | 1.16 | 1.04 | 0.496 | 0.516 | 0.414 | 0.509 | 0.454
LU99A | 0.977 | 0.898 | 1.1 | 0.953 | 0.972 | 0.91 | 0.862 | 0.748 | 0.972 | 0.961 | 0.824 | 0.815 | 0.974 | 0.937 | 0.75 | 0.839 | 0.774 | 0.706 | 0.82 | 0.921
NCI-H2170 | 1.24 | 1.15 | 1.07 | 0.996 | 1.04 | 0.911 | 0.975 | 0.851 | 0.921 | 0.718 | 0.74 | 0.734 | 0.684 | 0.525 | 0.577 | 0.381 | 0.359 | 0.494 | 0.43 | 0.503
NCI-H2347 | 1.11 | 1.02 | 1.04 | 0.828 | 1.01 | 0.873 | 0.738 | 0.955 | 0.936 | 1.05 | 0.964 | 0.888 | 0.912 | 0.874 | 0.802 | 0.284 |  | 0.376 | 0.5 | 0.441
NCI-H1993 | 0.927 | 1.07 | 0.856 | 0.974 | 0.914 | 0.987 | 0.925 | 0.64 | 0.827 | 0.78 | 0.876 | 0.938 | 0.893 | 0.979 | 0.895 | 0.513 | 0.427 | 0.5 | 0.421 | 0.507
NCI-H322M | 0.972 | 1.02 | 0.919 | 0.922 | 0.925 | 0.812 | 0.907 | 0.844 | 0.897 | 0.89 | 1.31 | 1.21 | 1.1 | 1.27 | 1.23 | 0.597 | 0.716 | 0.728 | 0.715 | 0.708
NCI-H838 | 1.01 | 1.05 | 1.04 | 1.01 | 0.955 | 0.962 | 0.937 | 0.853 | 0.946 | 0.923 | 1.25 | 1.21 | 1.32 | 1.27 | 1.15 | 0.545 | 0.581 | 0.5 | 0.505 | 0.583
HARA | 0.964 | 0.935 | 1.09 | 0.68 | 0.817 | 0.782 | 0.752 | 0.822 | 1.01 | 1.13 | 1.16 | 1.19 | 1.19 | 1.2 | 0.998 | 0.412 | 0.394 | 0.512 | 0.509 | 0.477
NCI-H2087 | 1.04 | 1.01 | 1.06 | 0.924 | 1 | 0.98 | 0.988 | 1.32 | 1.01 | 1.13 | 1.1 | 0.922 | 1.11 | 0.947 | 0.99 | 0.519 | 0.416 | 0.454 | 0.493 | 0.529
NCI-H1437 | 1.02 | 0.94 | 1.08 | 0.922 | 0.936 | 1 | 0.929 | 0.991 | 0.972 | 0.822 | 1.15 | 1.08 | 1.1 | 0.982 | 0.955 | 0.297 | 0.355 | 0.343 | 0.287 | 0.31
NCI-H1792 | 0.847 | 0.796 | 0.889 | 0.862 | 0.486 | 0.763 | 0.725 | 0.693 | 0.861 | 0.868 | 0.65 | 0.725 | 0.76 | 0.678 | 0.251 | 0.355 | 0.247 |  | 0.352 | 0.24
ChaGo-K-1 | 0.982 | 0.997 | 1.04 | 0.811 | 0.821 | 0.97 | 0.975 | 0.935 | 0.967 | 0.937 | 1.15 | 1.15 | 0.895 | 0.889 | 0.625 | 0.525 | 0.478 | 0.44 | 0.466 | 0.492
COR-L23 | 1.1 | 1.08 | 1.15 | 0.938 | 1.15 | 0.97 | 1.01 | 1.11 | 0.902 | 1.03 | 1.1 | 1.1 | 1.21 | 1.16 | 1.22 | 0.467 | 0.375 | 0.477 | 0.411 | 0.437
COR-L 105 | 0.95 | 0.901 | 1.02 | 0.899 | 0.91 | 0.921 | 0.938 | 0.909 | 0.821 | 0.801 | 0.896 | 0.809 | 0.865 | 0.81 | 0.68 | 0.46 | 0.432 | 0.456 | 0.437 | 0.45
LK-2 | 1.23 | 1.05 | 0.988 | 0.905 | 0.934 | 0.78 | 0.918 | 0.685 | 0.883 | 0.778 | 1.11 | 0.956 | 0.893 | 0.773 | 0.546 | 0.365 | 0.449 |  | 0.33 | 0.264
